Assay: Solubility of cannabidiol in alkyl esters of octanoic acid
Format: physicochemical
Details: in methyl octanoate and/or ethyl octanoate
Procedure: The cannabidiol can be present in an amount of from about 100 mg/mL. The cannabidiol can also be present in an amount up to about 150 mg/mL, 200 mg/ml, 250 mg/mL, 300 mg/mL, or 350 mg/mL, with higher concentrations of cannabidiol being preferred to reduce injection volume and promote ease of administration while reducing patient discomfort. The identity of ingredients and their amounts in the solvent system will determine the actual amount of cannabidiol that can be fully dissolved. […] Therefore, the higher the amount of alkyl ester of fatty acid that is present, the higher the amount of cannabidiol that can be dissolved.

## C=C(C)[C@@H]1CCC(C)=C[C@H]1c1c(O)cc(CCCCC)cc1O [cannabidiol, Cannabidiol]
  amount of cannabidiol that can be dissolved: at least 750 mg/mL

— patent US20260034051A1, “STABLE INJECTABLE CANNABIDIOL FORMULATIONS” (CARDIOL THERAPEUTICS INC., priority 2022, published 2026)
